The values that follow come from patent publication US5990326A, “3-oxiranyl benzoic acids and derivatives thereof” (G.D. Searle & Co., priority 1992, dated 1999).

For orientation: inhibition means the drop in the measured response relative to a control, in per cent. Broadly, the IC50 is the point on the concentration scale where inhibition reaches its midpoint.

Counter-ions that a name gives are not always drawn.

One test addresses T1, LTA4 hydrolase (Rattus norvegicus, UniProt P30349).
T1 construct: the supernatant containing cytosolic LTA4 hydrolase was obtained; from tissue; host or cells: peritoneal neutrophils (90-95% pure, oyster-glycogen elicited) of male Sprague Dawley rats; 100,000 x G supernatant of the homogenate
T1 sequence (P30349 1-611): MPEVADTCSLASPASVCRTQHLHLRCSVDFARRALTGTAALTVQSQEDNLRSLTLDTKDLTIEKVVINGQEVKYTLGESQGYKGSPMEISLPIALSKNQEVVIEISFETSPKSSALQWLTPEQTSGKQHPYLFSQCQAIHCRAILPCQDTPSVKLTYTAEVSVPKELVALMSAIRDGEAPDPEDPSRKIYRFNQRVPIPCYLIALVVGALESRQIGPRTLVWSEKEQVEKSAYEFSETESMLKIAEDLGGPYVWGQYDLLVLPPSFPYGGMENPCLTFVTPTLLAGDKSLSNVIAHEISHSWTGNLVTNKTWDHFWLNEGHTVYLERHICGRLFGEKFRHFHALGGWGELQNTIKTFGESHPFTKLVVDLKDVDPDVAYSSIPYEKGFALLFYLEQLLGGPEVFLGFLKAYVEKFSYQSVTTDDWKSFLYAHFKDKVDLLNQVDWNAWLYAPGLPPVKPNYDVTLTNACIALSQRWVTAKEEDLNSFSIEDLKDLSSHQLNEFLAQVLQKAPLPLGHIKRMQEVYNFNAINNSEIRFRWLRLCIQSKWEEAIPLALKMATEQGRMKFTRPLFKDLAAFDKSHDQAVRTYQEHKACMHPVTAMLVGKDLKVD
The test can be described thus: Leukotriene-A4 (LTA4) Hydrolase Enzyme Assay (inhibition of LTB4 production by rat neutrophil cytosol, RIA). Conditions: for inhibition at 100 µM: 10^-4 M; for IC50: rat neutrophil cytosolic LTA4 hydrolase. The test is classed as biochemical, rat (male Sprague Dawley). The text has this:
Leukotriene --A4 Hydrolase Inhibition Materials
Leukotriene-A4 -methyl ester and leukotriene-A3 were purchased from Biomol (Cambridge). Trans-stilbene oxide, EDTA, phenylmethyl sulphonyl fluoride were purchased from Sigma (St. Louis). Eagles Basil Media was purchased from GIBCO (Grand Island). LTB4 radioimmunoassay kit was purchased from Amersham (Arlington Heights, Ill.) (#Trk. 840).
Methods were modified from those reported by Evans et al., Biochem. Biophys. Acta, 840:43-50 (1985).
Male Sprague Dawley (CD1) rats (250-400 gm bodyweight) were given oyster glycogen, 1 mg/ml in 0.9% NaCl, by intraperitoneal injection. The animals were sacrificed after 8-20 hours and the peritoneal cavity washed with 10 ml Eagles Basil Medium (pH 7.4, 25 mM HEPES, without glutamine). The collected peritoneal lavage fluid was centrifuged at 150×G, 15 minutes at 4° C. to isolate the neutrophils. The supernatant was removed and the cell pellet was resuspended in 20 cc 10 mM sodium phosphate buffer, pH 7.0 with 2 mM Na-EDTA and 1 mM phenylmethyl sulphonyl fluoride (PMSF).
Leukotriene-A4 Hydrolase Isolation
The cell suspensions, which were 90-95% neutrophils as determined by cytometry, were homogenized by a polytron at 4° C. with three 30 second bursts with cooling on ice in between. The homogenate was centrifuged at 100,000×G for 60 minutes, and the supernatant containing cytosolic LTA4 hydrolase was obtained.
LTA4 Methyl Ester Deesterificaiton
LTA4, the substrate for LTA4 hydrolase, is supplied as the stable methyl ester that must be hydrolized to the active form. LTA4 -methyl ester (5000 ng) was dried under a stream of super-dry Argon (Matheson) to which was added a 1 ml methanol: 10M NaOH (9.8:0.2 v/v). The mixture was stirred 3 hours at 4° C. and used immediately.
LTA4 Hydrolase Enzyme Assay
Supernatant containing LTA4 hydrolase, 0.5 ml, was added to 0.5 ml Tris-acetate buffer, pH 7.8, containing 1 mg/ml fatty-acid free BSA. The mixture was incubated 3 minutes at 37° C. with 0.1 ml containing different enzyme inhibitor and test compound concentrations in DMSO. LTA4, 25 ng in 20 μl methanol, was added and incubation with shaking continued at 37° C. for one minute. The reaction was quenched with 2 ml ice-cold ethanol. The quenched mixture was immediately frozen at -76° C. LTB4 levels were determined by radioimmunoassay (RIA) with a validated commercial kit. Various concentrations of potential enzyme inhibitors were evaluated for inhibition of LTB4 production using a standardized amount of enzyme and substrate. The amount of inhibitor necessary to reduce LTB4 production by fifty percent was calculated as the IC50 value for each inhibitor. IC50 values were determined by least square linear regression analysis from the average ±SEM for 4 experiments.

Test [1] deals with A23187-Induced LTB4 Production in Human Promyelocytic Leukemia HL-60 Cells. Nature of the test: A23187-Induced LTB4 Production in Human Promyelocytic Leukemia HL-60 Cells (HL-60 Cell Assay). It counts as cell-based. The arrangement: key to HL-60 Cell Assay % Inhibition: I: inactive at that concentration. Particulars: for IC50: A23187-stimulated HL-60 cells, LTB4. The text has this: A23187-Induced LTB4 Production in Human Promyelocytic Leukemia HL-60 Cells.
Materials: Calcium ionophore A23187 was obtained from Calbiochem (La Jolla, Calif.). Trans-stilbene oxide was obtained from Sigma (St. Louis, Mis.). Hanks' balanced salt solution (HBSS) (10× concentrate), 1M Hepes, and Dulbecco's modified Eagle medium were obtained from GIBCO Laboratories (Grand Island, N.Y.). Fetal bovine serum was obtained from HyClone Laboratories (Logan, Utah). The LTB4 and PGE2 radioimmunoassay antibodies were purchased from Amersham International plc (Amersham, UK) and NEN Research Products (N. Billerica, Mass.), respectively. Reagents for assay of lactate dehydrogenase (LDH) activity were purchased from Beckman (Carlsbad, Calif.).
Preparation of HL-60 Cells: HL-60 cells were cultured in Dulbecco's modified Eagle medium (supplemented with 20% fetal bovine serum, 20 mM Hepes, 100 U/ml penicillin and 100 mcg/ml streptomycin) and maintained at 37° C. in a humidified atmosphere of 5% CO2 in air. Cells from exponentially growing cultures were seeded at 3×10^5 cells/ml and induced to differentiate into granulocytes wth 0.8% (v/v) N,N-dimethylformamide for 4 days (1,2). Prior to assay, differentiated HL-60 cells were washed once with Hanks' balanced salt solution containing 0.35 mg/ml sodium bicarbonate and 10 mM Hepes, pH 7.3 (HBSS) and resuspended in HBSS at a concentration of 3×10^6 cells/ml. HL-60 cell viability was >95% as assessed by trypan blue exclusion.
HL-60 Cell Assay: DMSO or test compounds as 100× concentrates in DMSO were added in duplicate to 1.0 ml HL-60 cell suspensions (3×10^6cells) and preincubated at 37° C. for 10 minutes in a shaking water bath. After an additional 5 minute incubation with calcium ionophore A23187 (10 mcl @ 5×10^-4 M in DMSO), the cells were pelleted at 12,800×g for 15 seconds and the supernatant removed and stored at -20° C. for quantification of LTB4 or PGE2 via radioimmunoassay and LDH activity.
Statistical Methods: LTB4 and PGE2 data were expressed as percent inhibition of A23187-stimulated controls. For IC50 determinations, the 4 parameter logistic model was used where y is the percent inhibition response and x is the log10 concentration of the inhibitor: [formula] Nonlinear regression was performed using the SAS (3) procedure NLIN to obtain least squares estimates of the four parameters in the above equation: yx (maximum), Y0 (minimum), a (log10 IC50) and b (slope factor). Increases in mean LDH levels for A23187-stimulated cells in the presence of test compound were tested for significance using a one-tailed two sample Student's t-test.

Consider `CCCCCCCCCCCCCC[C@@H]1O[C@H]1c1cccc(C(=O)OC)c1` (relative stereo) [Example 22, Methyl 3-(3-tetradecyloxiranyl)benzoate], for which the inhibition at 100 µM on LTA4 hydrolase turned out to be 20%; in test [1] (Homo sapiens, HL-60, 10^-4 M), 79%. Also, the “HL-60 Cell Assay % Inhibition” value in test [1] (10^-5 M) is given as “I”.

Turning to `CCCCCCCCCCCC/C=C/C1OC1c1cccc(C(=O)OC)c1` (centres unmarked) [Example 1, Methyl 3-[3-(1E-tetradecenyl)oxiranyl]benzoate], the “HL-60 Cell Assay % Inhibition” value in test [1] (10^-4 M) is “I”.

`CCCCCCCCCCCC/C=C/C1OC1c1cccc(C(=O)O)c1` (centres unmarked) [Example 1,Li^+ salt]: the inhibition at 100 µM came to 40% against LTA4 hydrolase and 94% in test [1] (Homo sapiens, HL-60, 10^-4 M). Further, the inhibition at 10 µM in test [1] (Homo sapiens, HL-60, 10^-5 M) was found to be 96%. Further, in test [1] (Homo sapiens, HL-60, 10^-6 M), at 1 µM the inhibition was 26%. In addition, the IC50 in test [1] (Homo sapiens) was 2800 nM.

On to `CCCCCCCCCC/C=C/C=C/C1OC1c1cccc(C(=O)OC)c1` (centres unmarked) [Example 4, Methyl 3-[3-(1E,3E-tetradecadienyl)oxiranyl]benzoate], for which, in test [1] (10^-5 M), the “HL-60 Cell Assay % Inhibition” value is “I”. Moreover, the inhibition at 100 µM in test [1] (Homo sapiens, HL-60, 10^-4 M) turned out to be 29%.

Regarding `CCCCCCCCCC/C=C/C=C/C1OC1c1cccc(C(=O)O)c1` (centres unmarked) [Example 4,Li^+ salt], the inhibition at 100 µM on LTA4 hydrolase was found to be 58%; in test [1] (Homo sapiens, HL-60, 10^-4 M) it was 88%. The IC50 was 80000 nM at LTA4 hydrolase and 160 nM in test [1] (Homo sapiens). The inhibition at 10 µM in test [1] (Homo sapiens, HL-60, 10^-5 M) is 89%. In addition, at 1 µM the inhibition in test [1] (Homo sapiens, HL-60, 10^-6 M) was 77%.

Regarding `CCCCCCCC/C=C/C=C/C=C/C1OC1c1cccc(C(=O)O)c1` (centres unmarked) [Example 7,Li^+ salt], the inhibition at 100 µM on LTA4 hydrolase turned out to be 85%. In addition, the IC50 against LTA4 hydrolase amounted to 2000 nM; in test [1] (Homo sapiens), 15000 nM. The “HL-60 Cell Assay % Inhibition” value in test [1] (10^-6 M) is “I”. In test [1] (Homo sapiens, HL-60, 5 × 10^-5 M), this molecule registered an inhibition at 50 µM of 80%. For the same molecule, the inhibition at 10 µM in test [1] (Homo sapiens, HL-60, 10^-5 M) turned out to be 61%.
